Like-named read-outs stand apart in the source and are kept apart here.
Columns and labels:
TNF-α production [1] = details: human PBMC, cited from earlier work; for IC50: LPS, read-out: IC50 for inhibiting production of TNF-α following LPS-stimulation of PBMC
AML cells = experiment: Mitogenic response to VEGF in AML cells; assay type: cell-based; details: by extinguishing ligand-induced Akt-phosphorylation
Excerpt: (§1) The pharmacological effects of 3-(4amino-1-oxo-1,3-dihydro-isoindol-2-yl)-piperidine-2,6-dione derive from its action as an inhibitor of cellular response to receptor-initiated trophic signals (e.g., IGF-1, VEGF, cyclooxygenase-2), and other activities. As a result, 3-(4-amino-1-oxo-1,3-dihydro-isoindol-2-yl)-piperidine-2,6-dione suppresses the generation of inflammatory cytokines, down-regulates adhesion molecules and apoptosis inhibitory proteins (e.g., cFLIP, cIAP), promotes sensitivity to death-receptor initiated programmed cell death, and suppresses angiogenic response.

[2] = tested on: MDS bone marrow progenitor formation; experiment: MDS vs normal bone marrow progenitor formation in pre-clinical models; assay type: cell-based
Excerpt: as §1

MDS patients [3] = experiment: Clinical study in MDS patients with transfusion-dependence or symptomatic anemia; assay type: in vivo, human
Procedure: Clinical studies were performed for the remitting potential of 3-(4-amino-1-oxo-1,3-dihydro-isoindol-2-yl)-piperidine-2,6-dione in MDS patients with red blood cell transfusion-dependence (>4 units/8 weeks) or symptomatic anemia (Hgb<10 g/dl). Patients received continuous treatment with 3-(4-amino-1-oxo-1,3-dihydro-isoindol-2-yl)-piperidine-2,6-dione at a oral dose of 25 mg daily. Responses were assessed according to IWG criteria after 16 weeks of treatments. Among 15 patients receiving the treatments, 11 patients were evaluable for toxicity, nine patients were evaluable for response (>8 wks therapy), and three patients discontinued the therapy prematurely (<2 weeks) due to cholecystitis, autoimmune hemolytic anemia, or patient refusal. Median age of the patients was 78 years ranging from 51 to 82 years. FAB types of the MDS patients include RA [4 patients], RARS [4 patients], RABB [6 patients], and RAEB-T [1 patient] with corresponding IPSS categories of Low/Int-1 in 11 patients and Int-2/High in four patients. Myelosuppression, which was characterized by higher than grade 3 common toxicity criteria or 50% decrease in leukocyte and platelet counts [9 patients], and grade 3 fatigue [1 patient], necessitated dose reduction to 10 mg in the initial ten patients. All subsequent patients initiated oral administrations with 10 mg daily. Grade 1, 2 drug-related adverse effects were limited to the 25 mg dose and included pruritus or itchy scalp [6 patients] and myalgia [1 patient]. Six (66%) of nine evaluable patients experienced hematologic benefit (dual lineage, 1 patient), including 6/7 (86%) patients with IPSS Low/Int-1. Hematologic responses included RBC transfusion-independence [4 patients], decrease in RBC transfusions of more than 50% [1 patient], increase in Hgb of more than 1.5 g [1 patient], and one minor platelet response (increase of more than 30,000/μL ). Among five patients evaluable for cytogenetic response, three patients achieved either a complete or partial (decrease in abnormal metaphases of more than 50%) remission. […] Correlation with changes in apoptotic index, angiogenic features (cellular/plasma VEGF, micro vessel density), cytokine generation, and proliferative fraction (Ki67) are in progress. […] Clinical benefit appears greatest in patients with low/intermediate-1 disease or the 5q-syndrome, associated with resolution of cytology dysplasia.

MDS patients [4] = experiment: Expanded clinical study, additional 16 MDS patients; assay type: in vivo, human
Excerpt: The clinical study was expanded with additional 16 MDS patients for at least eight weeks. According to the IPSS, 13 of these patients were categorized as low- or intermediate-1-risk patients and three patients were grouped as intermediate-2- or high-risk patients. According to the FAB classification, there were 11 patients with refractory anemia (RA) or RA with ringed sideroblasts (RARS), and five patients with RA with excess blasts (RAEB), RAEB in transformation (RAEB-T). The starting dose of 3-(4-amino-1-oxo-1,3-dihydro-isoindol-2-yl)-piperidine-2,6-dione was 25 mg daily for the first 13 patients and 10 mg daily for the remaining three patients. All patients receiving the starting dose of 25 mg required dose reduction by the completion of eight weeks therapy. Among these 16 patients who completed at least 8 weeks of monitoring, nine patients achieved an erythroid response as assessed by the International MDS Working Group Criteria. The erythroid responses consisted of transfusion independence in seven previously transfusion-dependent patients, a >2 g/dL rise in blood hemoglobin concentration in one patient in with transfusion-independent anemia, and a >50% decrease in RBC transfusion requirement in one transfusion-dependent patient. […] In addition, complete cytogenetic responses developed in five in eight patients with abnormal karyotypes at baseline. These five patients with complete cytogenetic responses all had the Del5q3 1-33 abnormality, which has been discovered to be a good prognostic factor for MDS. Indeed, all five patients who enrolled in this study with 5q-syndrome achieved a complete cytogenetic response and a major erythroid response. The study also indicated an association of this therapy with an increased apoptotic index for myelodysplastic progenitors and recovery of normal hematopoietic progenitor cells.

TNF-α production [5] = details: cited from earlier work
MDS patients [6] = details: cited from earlier work
[7] = 25 mg daily, initial ten patients, necessitated dose reduction to 10 mg

Which IC50 (TNF-α production [1]) does the source give for `O=C1CCC(N2C(=O)c3ccccc3C2=O)C(=O)N1` (racemic) [Thalidomide, 2-(2,6-dioxo-3-piperidinyl)-1H-isoindole-1,3(2H)-dione, reference compound] here?
The IC50 was ~194000 nM.

What about the “IC50 for inhibiting production of TNF-α following LPS-stimulation of PBMC” value (TNF-α production [1]) of the same molecule?
The value was ~50.2 µg/mL.

Which results are given for `Nc1cccc2c1CN(C1CCC(=O)NC1=O)C2=O` (stereo not drawn) [3-(4-amino-1-oxo-1,3-dihydro-isoindol-2-yl)-piperidine-2,6-dione]?
mitogenic response to VEGF (AML cells): abrogates mitogenic response to VEGF; MDS vs normal bone marrow progenitor formation [2]: selectively suppresses; tolerability (MDS patients [3]; 10 mg continuous oral daily dose): well-tolerated with minimal myelosuppression; grade 3 fatigue (MDS patients [3]; [7]): 1 patient; myelosuppression (higher than grade 3 common toxicity criteria or 50% decrease in leukocyte and platelet counts) (MDS patients [3]; [7]): 9 patients; Grade 1, 2 drug-related myalgia (MDS patients [3]; 25 mg dose): 1 patient; Grade 1, 2 drug-related pruritus or itchy scalp (MDS patients [3]; 25 mg dose): 6 patients; patients with hematologic benefit, IPSS Low/Int-1 (MDS patients [3]; 6/7 patients with IPSS Low/Int-1): 86%; complete or partial cytogenetic remission (decrease in abnormal metaphases of more than 50%) (MDS patients [3]; among five patients evaluable for cytogenetic response): three; RBC transfusion-independence (MDS patients [3]; of nine evaluable patients): 4 patients; decrease in RBC transfusions of more than 50% (MDS patients [3]; of nine evaluable patients): 1 patient; increase in Hgb of more than 1.5 g (MDS patients [3]; of nine evaluable patients): 1 patient; minor platelet response (increase of more than 30,000/μL) (MDS patients [3]; of nine evaluable patients): one; erythropoietic and cytogenetic remitting activity (MDS patients [3]; patients with low/intermediate-1 risk MDS): remarkable erythropoietic and cytogenetic remitting activity; normalization of blast percentage (MDS patients [3]; responders): 1 patient; patients with hematologic benefit (MDS patients [3]; six of nine evaluable patients, oral 25 mg daily, reduced to 10 mg, IWG criteria): 66%; erythroid response (International MDS Working Group Criteria) (MDS patients [4]; among 16 patients, at least 8 weeks, start 25 mg or 10 mg daily): nine; complete cytogenetic responses (MDS patients [4]; in eight patients with abnormal karyotypes at baseline): five; major erythroid response (MDS patients [4]; of 16 patients): eight; minor erythroid response (MDS patients [4]; of 16 patients): one; minor platelet response (MDS patients [4]; of 16 patients): One; complete cytogenetic response and major erythroid response in 5q-syndrome (MDS patients [4]; patients enrolled with 5q-syndrome): all five; transfusion independence (MDS patients [4]; previously transfusion-dependent patients): seven; patients requiring dose reduction by completion of eight weeks therapy (MDS patients [4]; starting dose of 25 mg (first 13 patients)): All patients; >50% decrease in RBC transfusion requirement (MDS patients [4]; transfusion-dependent patient): one; >2 g/dL rise in blood hemoglobin concentration (MDS patients [4]; transfusion-independent anemia): one; IC50 (TNF-α production [1]): ~100 nM; IC50 for inhibiting production of TNF-α following LPS-stimulation of PBMC (TNF-α production [1]): ~0.0259 µg/mL; IC50 for inhibiting production of TNF-α following LPS-stimulation of human whole blood (TNF-α production [5]): ~0.1036 µg/mL; IC50 (TNF-α production [5]; human whole blood, LPS, read-out: IC50 for inhibiting production of TNF-α following LPS-stimulation of human whole blood): ~480 nM

Which “patients with sustained improvement in hemoglobin or decrease in transfusion requirement” value (MDS patients [6]) does the source give for “recombinant human EPO: recombinant human erythropoietin (EPO), hematopoietic growth factor” here?
The value was “less than 25%”.
